Test results as given in ChEMBL document CHEMBL3596103, “Synthesis of novel amide functionalized 2H-chromene derivatives by Ritter amidation of primary alcohol using HBF4·OEt2 as a mild and versatile reagent and evaluation of their antimicrobial and anti-biofilm activities” (Bioorg Med Chem Lett, 2015).
≈ marks a conversion by molar mass, not a printed value. Calls of active or inactive are those of the source. No cut-off for these calls is given here.

Tests used:
Staphylococcus aureus [1] = experiment: Induction of intracellular ROS accumulation in Staphylococcus aureus MLS16 MTCC 2940 sessile biofilm cells at 0.5 to 2 um incubated for 24 hrs at 35 degC by DCFH-DA dye based fluorescence assay; assay type: functional, organism-based
Micrococcus luteus [2] = experiment: Inhibition of bio-film formation of Micrococcus luteus MTCC 2470 incubated for 24 hrs at 37 degC under static conditions by crystal violet staining method; assay type: functional, organism-based; conditions: MTCC 2470, 24 h
Bacillus subtilis [3] = experiment: Inhibition of bio-film formation of Bacillus subtilis MTCC 121 incubated for 24 hrs at 37 degC under static conditions by crystal violet staining method; assay type: functional, organism-based; conditions: MTCC 121, 24 h
Raoultella planticola [4] = experiment: Inhibition of bio-film formation of Klebsiella planticola MTCC 530 incubated for 24 hrs at 37 degC under static conditions by crystal violet staining method; assay type: functional, organism-based; conditions: MTCC 530, 24 h
Staphylococcus aureus [5] = experiment: Inhibition of bio-film formation of Staphylococcus aureus MLS16 MTCC 2940 incubated for 24 hrs at 37 degC under static conditions by crystal violet staining method; assay type: functional, organism-based; conditions: MLS16 MTCC 2940, 24 h
Escherichia coli [6] = experiment: Inhibition of bio-film formation of Escherichia coli MTCC 739 incubated for 24 hrs at 37 degC under static conditions by crystal violet staining method; assay type: functional, organism-based; conditions: MTCC 739, 24 h
Candida albicans = experiment: Antimicrobial activity against Candida albicans MTCC 3017 incubated for 24 hrs at 30 degC by well diffusion method; assay type: functional; conditions: MTCC 3017, 24 h
Staphylococcus aureus [7] = experiment: Antimicrobial activity against Staphylococcus aureus MLS16 MTCC 2940 incubated for 24 hrs at 37 degC by well diffusion method; assay type: functional; conditions: MLS16 MTCC 2940, 24 h
Raoultella planticola [8] = experiment: Antimicrobial activity against Klebsiella planticola MTCC 530 incubated for 24 hrs at 37 degC by well diffusion method; assay type: functional; conditions: MTCC 530, 24 h
Escherichia coli [9] = experiment: Antimicrobial activity against Escherichia coli MTCC 739 incubated for 24 hrs at 37 degC by well diffusion method; assay type: functional; conditions: MTCC 739, 24 h
Pseudomonas aeruginosa = experiment: Antimicrobial activity against Pseudomonas aeruginosa MTCC 2453 incubated for 24 hrs at 37 degC by well diffusion method; assay type: functional; conditions: MTCC 2453, 24 h
Micrococcus luteus [10] = experiment: Antimicrobial activity against Micrococcus luteus MTCC 2470 incubated for 24 hrs at 37 degC by well diffusion method; assay type: functional; conditions: MTCC 2470, 24 h
Bacillus subtilis [11] = experiment: Antimicrobial activity against Bacillus subtilis MTCC 121 incubated for 24 hrs at 37 degC by well diffusion method; assay type: functional; conditions: MTCC 121, 24 h
Bacillus subtilis [12] = experiment: Bactericidal activity against Bacillus subtilis MTCC 121 incubated for 24 hrs at 37 degC; assay type: functional; conditions: MTCC 121, 24 h
Raoultella planticola [13] = experiment: Bactericidal activity against Klebsiella planticola MTCC 530 incubated for 24 hrs at 37 degC; assay type: functional; conditions: MTCC 530, 24 h
Micrococcus luteus [14] = experiment: Bactericidal activity against Micrococcus luteus MTCC 2470 incubated for 24 hrs at 37 degC; assay type: functional; conditions: MTCC 2470, 24 h
Staphylococcus aureus [15] = experiment: Bactericidal activity against Staphylococcus aureus MLS16 MTCC 2940 incubated for 24 hrs at 37 degC; assay type: functional; conditions: MLS16 MTCC 2940, 24 h
Escherichia coli [16] = experiment: Bactericidal activity against Escherichia coli MTCC 739 incubated for 24 hrs at 37 degC; assay type: functional; conditions: MTCC 739, 24 h

Row | IC50 (Micrococcus luteus [2]) | IC50 (Bacillus subtilis [3]) | IC50 (Staphylococcus aureus [5]) | IC50 (Escherichia coli [6]) | MIC (Candida albicans) | MIC (Staphylococcus aureus [7]) | MIC (Escherichia coli [9]) | MIC (Pseudomonas aeruginosa) | MIC (Micrococcus luteus [10]) | MIC (Bacillus subtilis [11]) | SMILES | Activity (Staphylococcus aureus [1]) | IC50 (Raoultella planticola [4]) | MIC (Raoultella planticola [8]) | MBC (Bacillus subtilis [12]) | MBC (Raoultella planticola [13]) | MBC (Micrococcus luteus [14]) | MBC (Staphylococcus aureus [15]) | MBC (Escherichia coli [16])
1 | 0.31 µM | 0.42 µM | 0.25 µM | 0.43 µM |  |  |  |  |  |  | CC[C@H]1OC(=O)[C@H](C)[C@@H](O[C@H]2C[C@@](C)(OC)[C@@H](O)[C@H](C)O2)[C@H](C)[C@@H](O[C@@H]2O[C@H](C)C[C@H](N(C)C)[C@H]2O)[C@](C)(O)C[C@@H](C)C(=O)[C@H](C)[C@@H](O)[C@]1(C)O [ERYTHROMYCIN] | Active | 0.35 µM |  |  |  |  |  | 
2 |  |  |  |  | > 125 µg/mL | > 125 µg/mL |  |  |  |  | O=C(CCBr)NCC1=Cc2cccc(F)c2OC1(O)C(F)(F)F (stereo not drawn) |  |  |  |  |  |  |  | 
3 |  |  |  |  | 18.7 µM | > 125 µg/mL | > 125 µg/mL | > 125 µg/mL | > 125 µg/mL | > 125 µg/mL | Clc1ccc(COC(Cn2ccnc2)c2ccc(Cl)cc2Cl)c(Cl)c1 (stereo not drawn) [MICONAZOLE] |  |  | > 125 µg/mL |  |  |  |  | 
4 |  |  |  |  | > 125 µg/mL | 2.7 µM | 2.7 µM | 2.7 µM | 2.7 µM | 2.7 µM | O=C(O)c1cn(C2CC2)c2cc(N3CCNCC3)c(F)cc2c1=O [CIPROFLOXACIN] |  |  | 2.7 µM | 5.7 µM (≈ 1.89 µg/mL) | 2.7 µM (≈ 0.895 µg/mL) | 5.7 µM (≈ 1.89 µg/mL) | 2.7 µM (≈ 0.895 µg/mL) | 5.7 µM (≈ 1.89 µg/mL)
5 |  |  |  |  | > 125 µg/mL | > 125 µg/mL | > 125 µg/mL | > 125 µg/mL | > 125 µg/mL | > 125 µg/mL | CC(=O)NCC1=Cc2ccccc2OC1(O)C(F)(F)F (stereo not drawn) |  |  | > 125 µg/mL |  |  |  |  | 
6 | 17.1 µM | 43.8 µM | 19.7 µM |  | > 125 µg/mL | 37.1 µM | > 125 µg/mL | > 125 µg/mL | > 125 µg/mL | 74.2 µM | O=C(Cc1cccc(Cl)c1)NCC1=Cc2ccccc2OC1(O)C(F)(F)F (stereo not drawn) |  |  | 37.1 µM | 74.2 µM (≈ 29.5 µg/mL) | > 230 µM | 74.2 µM (≈ 29.5 µg/mL) | 37.1 µM (≈ 14.8 µg/mL) | > 230 µM
7 |  |  |  |  | > 125 µg/mL | > 125 µg/mL | > 125 µg/mL | > 125 µg/mL | > 125 µg/mL | > 125 µg/mL | O=C(CCCCBr)NCC1=Cc2cc(Br)ccc2OC1(O)C(F)(F)F (stereo not drawn) |  |  | > 125 µg/mL |  |  |  |  | 
8 |  |  |  |  | > 125 µg/mL | > 125 µg/mL | > 125 µg/mL | > 125 µg/mL | > 125 µg/mL | > 125 µg/mL | CC(=O)NCC1=Cc2cc(Br)ccc2OC1(O)C(F)(F)F (stereo not drawn) |  |  | > 125 µg/mL |  |  |  |  | 
9 | 18.4 µM | 22.2 µM | 9.2 µM | 8.2 µM | > 125 µg/mL | 15.6 µM | 15.6 µM | > 125 µg/mL | 31.2 µM | 31.2 µM | O=C(Cc1cccc(Cl)c1)NCC1=Cc2cc(Br)ccc2OC1(O)C(F)(F)F (stereo not drawn) |  | 24.6 µM | 31.2 µM | 74.2 µM (≈ 35.4 µg/mL) | 74.2 µM (≈ 35.4 µg/mL) | 74.2 µM (≈ 35.4 µg/mL) | 37.1 µM (≈ 17.7 µg/mL) | 37.1 µM (≈ 17.7 µg/mL)
10 | 17.4 µM |  | 16.8 µM |  | > 125 µg/mL | > 125 µg/mL | > 125 µg/mL | > 125 µg/mL | > 125 µg/mL | 33.6 µM | O=C(Cc1ccc(Br)cc1)NCC1=Cc2ccccc2OC1(O)C(F)(F)F (stereo not drawn) |  |  | 33.6 µM | > 230 µM | > 230 µM | 33.6 µM (≈ 14.9 µg/mL) | 67.2 µM (≈ 29.7 µg/mL) | > 230 µM
11 | 19.1 µM |  | 21.9 µM |  | > 125 µg/mL | 33.6 µM | > 125 µg/mL | > 125 µg/mL | > 125 µg/mL | > 125 µg/mL | O=C(Cc1ccccc1)NCC1=Cc2cc(Br)ccc2OC1(O)C(F)(F)F (stereo not drawn) |  |  | 33.6 µM | > 230 µM | > 230 µM | 33.6 µM (≈ 14.9 µg/mL) | 67.2 µM (≈ 29.7 µg/mL) | > 230 µM
12 |  |  |  |  | > 125 µg/mL | > 125 µg/mL | > 125 µg/mL | > 125 µg/mL | > 125 µg/mL | > 125 µg/mL | O=C(CCBr)NCC1=Cc2cc(Br)ccc2OC1(O)C(F)(F)F (stereo not drawn) |  |  | > 125 µg/mL |  |  |  |  | 
13 | 7.7 µM | 8.8 µM | 6.2 µM | 5.8 µM | > 125 µg/mL | 14.3 µM | 14.3 µM | > 125 µg/mL | 28.6 µM | 14.3 µM | O=C(Cc1ccc(Br)cc1)NCC1=Cc2cc(Br)ccc2OC1(O)C(F)(F)F (stereo not drawn) |  | 14.8 µM | 14.3 µM | 28.6 µM (≈ 14.9 µg/mL) | 57.3 µM (≈ 29.9 µg/mL) | 28.6 µM (≈ 14.9 µg/mL) | 14.3 µM (≈ 7.45 µg/mL) | 14.3 µM (≈ 7.45 µg/mL)
14 |  |  |  |  | > 125 µg/mL | > 125 µg/mL | > 125 µg/mL | > 125 µg/mL | > 125 µg/mL | > 125 µg/mL | O=C(CCCCBr)NCC1=Cc2ccccc2OC1(O)C(F)(F)F (stereo not drawn) |  |  | > 125 µg/mL |  |  |  |  | 
15 | 8.3 µM | 5.1 µM | 3.6 µM | 10.5 µM | > 125 µg/mL | 9.5 µM | 19.1 µM | > 125 µg/mL | 19.1 µM | 9.5 µM | O=C(CBr)NCC1=Cc2ccccc2OC1(O)C(F)(F)F (stereo not drawn) |  | 12.7 µM | 19.1 µM | 19.1 µM (≈ 6.99 µg/mL) | 19.1 µM (≈ 6.99 µg/mL) | 38.3 µM (≈ 14 µg/mL) | 19.1 µM (≈ 6.99 µg/mL) | 38.3 µM (≈ 14 µg/mL)
16 | 1.7 µM | 1.4 µM | 1.2 µM | 1.4 µM | > 125 µg/mL | 4 µM | 8.3 µM | > 125 µg/mL | 8.3 µM | 4 µM | O=C(CBr)NCC1=Cc2cc(Br)ccc2OC1(O)C(F)(F)F (stereo not drawn) | Active | 1.7 µM | 4 µM | 4 µM (≈ 1.78 µg/mL) | 8.3 µM (≈ 3.69 µg/mL) | 8.3 µM (≈ 3.69 µg/mL) | 4 µM (≈ 1.78 µg/mL) | 16.6 µM (≈ 7.39 µg/mL)
17 |  |  |  |  | > 125 µg/mL | > 125 µg/mL | > 125 µg/mL | > 125 µg/mL | > 125 µg/mL | > 125 µg/mL | O=C(CCBr)NCC1=Cc2ccccc2OC1(O)C(F)(F)F (stereo not drawn) |  |  | > 125 µg/mL |  |  |  |  | 
18 |  |  |  |  | > 125 µg/mL | > 125 µg/mL | > 125 µg/mL | > 125 µg/mL | > 125 µg/mL | > 125 µg/mL | O=C(Cc1ccccc1)NCC1=Cc2ccccc2OC1(O)C(F)(F)F (stereo not drawn) |  |  | > 125 µg/mL |  |  |  |  | 
